Assay results from ChEMBL document CHEMBL4800728, “Data for DCP probe JNJ-54119936” (2021).

Columns and labels:
[1] = biological target: T1, Estrogen receptor (Homo sapiens) (UniProt P03372); assay: ERalpha In-house nuclear receptor screen; settings: Compound concentration 3.0 uM
T1 sequence (whole entry): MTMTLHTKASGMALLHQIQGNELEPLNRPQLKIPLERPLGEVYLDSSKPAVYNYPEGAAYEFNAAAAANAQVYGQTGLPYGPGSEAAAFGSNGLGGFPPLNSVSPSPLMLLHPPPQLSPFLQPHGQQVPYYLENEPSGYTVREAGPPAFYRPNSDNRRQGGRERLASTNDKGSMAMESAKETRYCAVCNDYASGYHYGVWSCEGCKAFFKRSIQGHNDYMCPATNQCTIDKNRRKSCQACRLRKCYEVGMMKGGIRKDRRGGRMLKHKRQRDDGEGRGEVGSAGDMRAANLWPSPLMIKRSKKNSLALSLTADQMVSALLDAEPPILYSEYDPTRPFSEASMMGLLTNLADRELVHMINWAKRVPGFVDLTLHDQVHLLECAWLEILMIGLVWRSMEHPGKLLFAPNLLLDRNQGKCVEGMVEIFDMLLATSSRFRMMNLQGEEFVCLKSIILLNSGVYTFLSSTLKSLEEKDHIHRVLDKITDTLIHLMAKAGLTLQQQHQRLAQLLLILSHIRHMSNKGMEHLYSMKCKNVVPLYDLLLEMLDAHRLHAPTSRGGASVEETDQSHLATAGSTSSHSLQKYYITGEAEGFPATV

[2] = biological target: Serine/threonine-protein kinase PLK1 (Homo sapiens) (UniProt P53350); assay: Plk1 Invitrogen kinase panel; settings: Compound concentration 10.0 uM
[3] = biological target: T2, Bile acid receptor (Homo sapiens) (UniProt Q96RI1); assay: FXR Indigo Bioscience nuclear receptor screen
T2 sequence (whole entry): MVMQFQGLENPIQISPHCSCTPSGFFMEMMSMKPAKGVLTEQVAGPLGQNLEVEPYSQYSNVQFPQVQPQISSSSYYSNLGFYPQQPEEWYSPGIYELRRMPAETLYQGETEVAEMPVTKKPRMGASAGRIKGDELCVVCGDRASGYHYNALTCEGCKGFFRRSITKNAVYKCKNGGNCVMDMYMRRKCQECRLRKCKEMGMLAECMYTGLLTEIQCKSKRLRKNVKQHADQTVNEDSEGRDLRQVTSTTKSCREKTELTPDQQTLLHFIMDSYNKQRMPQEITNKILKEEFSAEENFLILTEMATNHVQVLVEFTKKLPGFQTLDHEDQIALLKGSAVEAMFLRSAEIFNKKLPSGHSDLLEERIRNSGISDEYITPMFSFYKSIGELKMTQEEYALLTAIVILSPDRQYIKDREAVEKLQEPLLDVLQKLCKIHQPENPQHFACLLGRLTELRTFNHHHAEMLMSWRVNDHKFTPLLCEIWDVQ

[4] = biological target: Beta-2 adrenergic receptor (Homo sapiens) (UniProt P07550); settings: Compound concentration 10.0 uM
[5] = biological target: NT-3 growth factor receptor (Homo sapiens) (UniProt Q16288); assay: TrkC Invitrogen kinase panel; settings: Compound concentration 10.0 uM
[6] = biological target: T3, PXR (nuclear receptor subfamily 1 group I member 2) (Homo sapiens, UniProt O75469); assay: PXR Indigo Bioscience nuclear receptor screen
T3 sequence (O75469 whole entry): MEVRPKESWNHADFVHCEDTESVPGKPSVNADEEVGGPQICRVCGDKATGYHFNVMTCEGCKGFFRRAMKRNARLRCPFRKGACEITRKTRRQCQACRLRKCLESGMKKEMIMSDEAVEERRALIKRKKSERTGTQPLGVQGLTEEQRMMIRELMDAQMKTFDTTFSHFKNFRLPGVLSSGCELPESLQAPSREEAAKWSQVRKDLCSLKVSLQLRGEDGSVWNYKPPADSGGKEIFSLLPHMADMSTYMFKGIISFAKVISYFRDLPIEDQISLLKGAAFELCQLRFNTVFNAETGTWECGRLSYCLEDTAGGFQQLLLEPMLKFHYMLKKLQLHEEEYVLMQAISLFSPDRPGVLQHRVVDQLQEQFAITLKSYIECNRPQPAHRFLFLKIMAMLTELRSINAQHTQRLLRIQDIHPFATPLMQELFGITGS

[7] = biological target: Beta-1 adrenergic receptor (Homo sapiens) (UniProt P08588); settings: Compound concentration 10.0 uM
[8] = biological target: T4, Glucocorticoid receptor (Homo sapiens) (UniProt P04150); assay: GR Indigo Bioscience nuclear receptor screen
T4 sequence (whole entry): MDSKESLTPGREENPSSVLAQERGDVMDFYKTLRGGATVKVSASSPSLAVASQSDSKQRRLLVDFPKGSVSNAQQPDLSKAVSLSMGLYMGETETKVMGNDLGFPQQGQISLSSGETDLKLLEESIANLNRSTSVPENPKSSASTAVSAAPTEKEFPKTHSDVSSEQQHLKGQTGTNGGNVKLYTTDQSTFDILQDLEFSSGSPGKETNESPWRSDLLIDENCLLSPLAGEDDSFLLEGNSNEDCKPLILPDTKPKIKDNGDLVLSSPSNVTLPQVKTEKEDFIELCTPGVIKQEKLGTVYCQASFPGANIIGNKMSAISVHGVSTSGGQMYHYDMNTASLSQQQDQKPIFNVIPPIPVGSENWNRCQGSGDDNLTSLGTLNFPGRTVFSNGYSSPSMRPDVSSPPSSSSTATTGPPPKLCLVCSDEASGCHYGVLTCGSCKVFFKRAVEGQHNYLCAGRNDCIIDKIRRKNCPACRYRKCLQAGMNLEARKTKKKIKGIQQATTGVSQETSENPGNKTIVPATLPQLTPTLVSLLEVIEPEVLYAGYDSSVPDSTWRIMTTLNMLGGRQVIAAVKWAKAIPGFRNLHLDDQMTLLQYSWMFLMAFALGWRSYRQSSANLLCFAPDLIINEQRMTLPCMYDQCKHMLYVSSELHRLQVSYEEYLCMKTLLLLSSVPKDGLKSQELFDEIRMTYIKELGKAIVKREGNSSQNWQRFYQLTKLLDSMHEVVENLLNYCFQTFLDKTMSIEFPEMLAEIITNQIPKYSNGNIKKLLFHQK

[9] = biological target: C-X-C chemokine receptor type 2 (Homo sapiens) (UniProt P25025); assay: CXCR2 (h) CEREP screen; settings: Compound concentration 1.0 uM
[10] = biological target: Proto-oncogene tyrosine-protein kinase Src (Homo sapiens) (UniProt P12931); assay: SRC Invitrogen kinase panel; settings: Compound concentration 10.0 uM
Sequence of Proto-oncogene tyrosine-protein kinase Src (Homo sapiens) (P12931 2-536 limits assumed): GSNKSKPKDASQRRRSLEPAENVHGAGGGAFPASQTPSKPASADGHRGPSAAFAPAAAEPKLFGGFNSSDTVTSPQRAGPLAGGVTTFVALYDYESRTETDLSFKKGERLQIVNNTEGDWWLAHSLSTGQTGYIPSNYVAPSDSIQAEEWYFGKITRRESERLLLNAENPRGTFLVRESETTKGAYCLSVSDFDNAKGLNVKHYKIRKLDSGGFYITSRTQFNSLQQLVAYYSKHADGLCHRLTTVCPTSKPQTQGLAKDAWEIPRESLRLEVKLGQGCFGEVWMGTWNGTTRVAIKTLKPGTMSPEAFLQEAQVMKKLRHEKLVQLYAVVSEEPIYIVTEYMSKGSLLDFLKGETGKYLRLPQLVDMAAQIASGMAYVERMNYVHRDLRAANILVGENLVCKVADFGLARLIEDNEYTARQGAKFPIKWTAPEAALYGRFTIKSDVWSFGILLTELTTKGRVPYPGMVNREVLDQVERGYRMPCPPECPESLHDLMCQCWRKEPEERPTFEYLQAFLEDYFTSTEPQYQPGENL

Sequence of C-X-C chemokine receptor type 2 (Homo sapiens) (P25025 whole entry): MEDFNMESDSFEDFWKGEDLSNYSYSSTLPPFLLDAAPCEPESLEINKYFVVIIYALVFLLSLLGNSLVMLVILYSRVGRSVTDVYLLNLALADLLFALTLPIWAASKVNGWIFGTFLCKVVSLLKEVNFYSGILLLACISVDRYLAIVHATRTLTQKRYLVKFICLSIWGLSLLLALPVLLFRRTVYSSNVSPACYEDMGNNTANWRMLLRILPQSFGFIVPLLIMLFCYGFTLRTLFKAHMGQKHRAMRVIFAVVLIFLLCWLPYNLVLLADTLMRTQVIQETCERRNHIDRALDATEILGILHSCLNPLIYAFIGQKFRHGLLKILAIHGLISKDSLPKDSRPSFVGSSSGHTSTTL
Sequence of Beta-2 adrenergic receptor (Homo sapiens) (P07550 whole entry, looked up): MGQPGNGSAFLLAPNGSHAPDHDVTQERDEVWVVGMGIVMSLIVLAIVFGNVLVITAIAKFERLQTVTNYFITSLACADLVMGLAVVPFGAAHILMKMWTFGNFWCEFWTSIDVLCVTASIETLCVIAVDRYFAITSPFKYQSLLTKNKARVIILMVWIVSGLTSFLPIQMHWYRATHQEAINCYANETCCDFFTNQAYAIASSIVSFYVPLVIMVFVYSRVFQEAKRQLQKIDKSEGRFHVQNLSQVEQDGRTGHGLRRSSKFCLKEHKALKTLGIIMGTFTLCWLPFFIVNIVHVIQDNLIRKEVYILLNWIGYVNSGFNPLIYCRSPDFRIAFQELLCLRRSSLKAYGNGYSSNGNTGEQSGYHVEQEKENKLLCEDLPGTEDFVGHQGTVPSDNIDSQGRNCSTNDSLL
Sequence of NT-3 growth factor receptor (Homo sapiens) (Q16288 32-839 limits assumed): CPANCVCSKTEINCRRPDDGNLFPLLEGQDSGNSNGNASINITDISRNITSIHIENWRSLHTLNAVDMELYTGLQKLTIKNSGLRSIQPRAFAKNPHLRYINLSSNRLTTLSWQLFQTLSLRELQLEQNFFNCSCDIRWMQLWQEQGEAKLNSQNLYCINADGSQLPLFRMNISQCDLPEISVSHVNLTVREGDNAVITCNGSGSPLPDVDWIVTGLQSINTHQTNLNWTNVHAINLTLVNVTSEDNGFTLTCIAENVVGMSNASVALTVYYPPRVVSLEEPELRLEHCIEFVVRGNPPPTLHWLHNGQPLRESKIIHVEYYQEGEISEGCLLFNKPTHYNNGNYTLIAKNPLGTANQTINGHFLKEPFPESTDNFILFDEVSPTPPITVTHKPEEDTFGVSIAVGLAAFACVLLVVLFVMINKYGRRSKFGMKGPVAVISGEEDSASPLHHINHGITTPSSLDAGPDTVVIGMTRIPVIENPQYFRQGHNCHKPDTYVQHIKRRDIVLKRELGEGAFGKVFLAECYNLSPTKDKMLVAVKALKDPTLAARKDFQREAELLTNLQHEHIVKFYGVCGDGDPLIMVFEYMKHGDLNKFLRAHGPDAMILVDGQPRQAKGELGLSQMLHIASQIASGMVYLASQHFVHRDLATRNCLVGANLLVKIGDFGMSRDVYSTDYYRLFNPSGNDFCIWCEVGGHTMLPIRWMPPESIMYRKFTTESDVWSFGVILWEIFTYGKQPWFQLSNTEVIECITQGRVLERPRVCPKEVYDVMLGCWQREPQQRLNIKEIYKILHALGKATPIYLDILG
Sequence of Serine/threonine-protein kinase PLK1 (Homo sapiens) (P53350 whole entry): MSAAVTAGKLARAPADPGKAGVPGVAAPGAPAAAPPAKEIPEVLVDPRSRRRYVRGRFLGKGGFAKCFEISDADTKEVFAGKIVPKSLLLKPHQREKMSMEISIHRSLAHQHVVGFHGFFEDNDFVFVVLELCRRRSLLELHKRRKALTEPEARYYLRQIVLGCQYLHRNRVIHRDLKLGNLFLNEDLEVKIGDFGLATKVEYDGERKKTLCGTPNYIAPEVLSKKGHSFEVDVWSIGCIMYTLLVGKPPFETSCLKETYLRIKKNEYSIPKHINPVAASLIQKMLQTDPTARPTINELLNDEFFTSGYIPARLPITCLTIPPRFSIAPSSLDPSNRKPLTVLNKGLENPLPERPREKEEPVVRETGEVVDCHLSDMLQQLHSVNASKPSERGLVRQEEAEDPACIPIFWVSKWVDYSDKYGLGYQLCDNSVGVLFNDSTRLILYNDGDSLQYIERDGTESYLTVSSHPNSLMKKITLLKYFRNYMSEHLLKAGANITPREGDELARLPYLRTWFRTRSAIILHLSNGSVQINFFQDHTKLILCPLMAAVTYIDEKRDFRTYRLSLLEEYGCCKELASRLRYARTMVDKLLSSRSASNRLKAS
Sequence of Beta-1 adrenergic receptor (Homo sapiens) (P08588 whole entry, looked up): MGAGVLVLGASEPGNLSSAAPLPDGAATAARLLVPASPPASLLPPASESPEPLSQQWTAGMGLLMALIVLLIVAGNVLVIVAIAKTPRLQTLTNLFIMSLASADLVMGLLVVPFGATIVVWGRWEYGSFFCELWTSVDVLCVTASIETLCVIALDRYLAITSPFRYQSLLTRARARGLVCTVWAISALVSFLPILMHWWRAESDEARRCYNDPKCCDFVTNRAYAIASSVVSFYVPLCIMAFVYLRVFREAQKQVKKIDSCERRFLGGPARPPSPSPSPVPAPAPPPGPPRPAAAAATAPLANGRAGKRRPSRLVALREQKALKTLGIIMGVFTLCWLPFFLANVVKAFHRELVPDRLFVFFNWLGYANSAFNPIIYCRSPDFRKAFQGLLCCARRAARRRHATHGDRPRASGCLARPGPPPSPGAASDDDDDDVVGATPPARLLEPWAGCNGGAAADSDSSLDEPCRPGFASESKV

SMILES: COc1nc2ccc([C@@](O)(c3ccccc3)C3CCN(C(C)=O)CC3)cc2c(Cl)c1Cc1ccc(-n2cccn2)cc1 [JNJ-54119936]
- inhibition [1]: 16.8%
- inhibition [2]: -1%
- inhibition ([3]; Compound concentration 0.3 uM): -8.5%
- inhibition ([3]; Compound concentration 1.0 uM): 5.23%
- inhibition [4]: 15.6%
- inhibition [5]: 3%
- inhibition at 0.3 µM ([6]; compound concentration 0.3 uM): -7.63% (not active)
- inhibition at 1 µM ([6]; compound concentration 1 uM): -26.4% (not active)
- inhibition at 3 µM ([6]; compound concentration 3 uM): 1.01% (not active)
- inhibition [7]: 15.2%
- inhibition ([8]; Compound concentration 0.3 uM): 4.11%
- inhibition ([8]; Compound concentration 1.0 uM): 2.23%
- inhibition ([8]; Compound concentration 3.0 uM): 12.6%
- inhibition [9]: 10%
- inhibition [10]: 4%
